Measurements from ChEMBL document CHEMBL1144238, “Identification and SAR around N-{2-[4-(2,3-dihydro-benzo[1,4]dioxin-2-ylmethyl)-[1,4]diazepan-1-yl]-ethyl}-2-phenoxy-nicotinamide, a selective alpha2C adrenergic receptor antagonist” (Bioorg Med Chem Lett, 2008).

Tests used:
[1] = biological target: T1, Alpha-2B adrenergic receptor (Homo sapiens, UniProt P18089); experiment: Binding affinity at human recombinant adrenergic alpha2B receptor expressed in CHO cells by radioligand binding assay; type: cell-based
T1 sequence (P18089 whole entry): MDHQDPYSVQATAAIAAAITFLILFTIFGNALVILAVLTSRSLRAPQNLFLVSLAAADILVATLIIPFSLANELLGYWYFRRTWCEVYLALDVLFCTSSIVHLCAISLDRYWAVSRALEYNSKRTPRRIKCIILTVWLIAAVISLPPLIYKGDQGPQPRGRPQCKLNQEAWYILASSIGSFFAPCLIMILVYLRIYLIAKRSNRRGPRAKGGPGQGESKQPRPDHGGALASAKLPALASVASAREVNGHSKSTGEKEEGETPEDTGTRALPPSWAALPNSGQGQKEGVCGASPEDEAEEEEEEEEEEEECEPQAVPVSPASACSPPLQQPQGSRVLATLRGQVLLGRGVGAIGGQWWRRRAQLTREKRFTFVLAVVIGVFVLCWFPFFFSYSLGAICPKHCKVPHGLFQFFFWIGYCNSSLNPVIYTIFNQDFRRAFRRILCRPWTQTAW

[2] = biological target: T2, Alpha-2C adrenergic receptor (Homo sapiens, UniProt P18825); experiment: Antagonist activity at human recombinant adrenergic Alpha-2C receptor expressed in CHO cells assessed as inhibition of NE-induced calcium mobilization by FLIPR; type: functional, cell-based
T2 sequence (P18825 whole entry): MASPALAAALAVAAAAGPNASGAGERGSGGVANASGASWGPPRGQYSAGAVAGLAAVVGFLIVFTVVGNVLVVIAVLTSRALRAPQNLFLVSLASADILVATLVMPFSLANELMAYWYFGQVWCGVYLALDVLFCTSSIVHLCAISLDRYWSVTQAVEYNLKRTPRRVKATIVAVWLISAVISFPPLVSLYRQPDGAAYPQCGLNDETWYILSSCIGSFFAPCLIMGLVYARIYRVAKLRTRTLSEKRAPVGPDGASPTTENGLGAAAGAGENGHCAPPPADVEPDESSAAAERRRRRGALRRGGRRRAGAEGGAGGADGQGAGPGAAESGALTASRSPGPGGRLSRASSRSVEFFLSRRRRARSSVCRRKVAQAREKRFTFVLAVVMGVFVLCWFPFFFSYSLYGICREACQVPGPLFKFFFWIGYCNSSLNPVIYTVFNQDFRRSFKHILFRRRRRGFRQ

Homo sapiens [3] = species: Homo sapiens; experiment: Selectivity human recombinant adrenergic Alpha-2C receptor over human recombinant adrenergic alpha2B receptor by FLIPR
Homo sapiens [4] = species: Homo sapiens; experiment: Selectivity human recombinant adrenergic Alpha-2C receptor over human recombinant adrenergic alpha2A receptor by FLIPR
[5] = biological target: T2, Alpha-2C adrenergic receptor; experiment: Binding affinity at human recombinant adrenergic Alpha-2C receptor expressed in CHO cells by radioligand binding assay; type: cell-based
Homo sapiens [6] = species: Homo sapiens; experiment: Selectivity for human recombinant adrenergic Alpha-2C receptor over human recombinant adrenergic alpha2A receptor by radioligand binding assay
[7] = biological target: T3, Alpha-2A adrenergic receptor (Homo sapiens, UniProt P08913); experiment: Binding affinity at human recombinant adrenergic alpha2A receptor expressed in CHO cells by radioligand binding assay; type: cell-based
T3 sequence (P08913 whole entry): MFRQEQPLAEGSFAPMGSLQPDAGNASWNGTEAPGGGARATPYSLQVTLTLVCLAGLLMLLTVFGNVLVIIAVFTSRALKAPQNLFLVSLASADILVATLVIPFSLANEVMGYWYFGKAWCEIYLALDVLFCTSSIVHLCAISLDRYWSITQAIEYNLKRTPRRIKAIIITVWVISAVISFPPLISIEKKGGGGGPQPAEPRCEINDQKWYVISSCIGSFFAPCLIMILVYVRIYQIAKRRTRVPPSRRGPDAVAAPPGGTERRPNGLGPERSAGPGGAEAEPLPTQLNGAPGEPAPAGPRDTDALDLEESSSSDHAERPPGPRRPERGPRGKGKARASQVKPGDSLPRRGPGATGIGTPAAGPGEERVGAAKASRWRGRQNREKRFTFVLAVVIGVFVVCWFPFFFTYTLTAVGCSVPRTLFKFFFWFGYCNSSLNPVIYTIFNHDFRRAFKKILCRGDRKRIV

[8] = biological target: T1, Alpha-2B adrenergic receptor; experiment: Antagonist activity at human recombinant adrenergic alpha2B receptor expressed in CHO cells assessed as inhibition of NE-induced calcium mobilization by FLIPR; type: functional, cell-based
Homo sapiens [9] = species: Homo sapiens; experiment: Selectivity for human recombinant adrenergic Alpha-2C receptor over human recombinant adrenergic alpha2B receptor by radioligand binding assay
[10] = biological target: T3, Alpha-2A adrenergic receptor; experiment: Antagonist activity at human recombinant adrenergic alpha2A receptor expressed in CHO cells assessed as inhibition of NE-induced calcium mobilization by FLIPR; type: functional, cell-based

Structure (SMILES) | Ki [1] [nM] | Ki [2] [nM] | Ratio Ki (Homo sapiens [3]) | Ratio Ki (Homo sapiens [4]) | Ki [5] [nM] | Ratio Ki (Homo sapiens [6]) | Ki [7] [nM] | Ki [8] [nM] | Ratio Ki (Homo sapiens [9]) | Ki [10] [nM]
CCCCOc1cccc(C(=O)NCCN2CCCN(CC3COc4ccccc4O3)CC2)n1 (stereo not drawn) | 10.9 | 3.8 | 4 | 13 | 0.6 | 195 | 118 | 14.1 | 18 | 48.4
c1ccc(CN2CCN(CC3COc4ccccc4C3)CC2)cc1 (stereo not drawn) | > 500 |  |  |  | > 500 |  | > 500 |  |  | 
c1ccc(CN2CCN(CC3CCc4ccccc4O3)CC2)cc1 (stereo not drawn) | 72.8 | 21.1 | 9 | 8 | 19.6 | 7 | 146 | 180 | 4 | 167
O=C(NCCN1CCN(CC2COc3ccccc3O2)CC1)c1cccnc1Oc1ccccc1 (stereo not drawn) | 8 |  |  |  | 3 | 9 | 27 |  | 3 | 
c1ccc(Oc2ncccc2-c2noc(CN3CCCN(CC4COc5ccccc5O4)CC3)n2)cc1 (stereo not drawn) | 15.3 | 1.7 | 3 | 9 | 1.9 | 23 | 44.8 | 5.2 | 8 | 15.4
O=C(NCCN1CCCN(CC2COc3ccccc3O2)CC1)c1cccnc1Oc1ccccc1 (stereo not drawn) | 49 | 25 | 5 | 19 | 5 | 44 | 220 | 132 | 10 | 474
CC(C)(C)Nc1ncccc1C(=O)NCCN1CCCN(CC2COc3ccccc3O2)CC1 (stereo not drawn) | 28 | 30.5 | 3 | 12 | 0.5 | 286 | 138 | 103 | 58 | 366
